Test results published in patent US20180371044A1, “PEPTIDOMIMETIC MACROCYCLES” (Aileron Therapeutics, Inc., priority 2015, published 2018).
Where a SMILES comes first, the peptide text is derived from it. Bridges are numbered along the chain shown (N, C = ends). [ ]: non-standard residue; d: D form. The star is where a group is joined. Decanoyl(3,6,9-trioxa) = COCCOCCOCC(=O)*; NMeY = CN[C@@H](Cc1ccc(O)cc1)C(=O)O; R8 = C=CCCCCCC[C@@](C)(N)C(=O)O; S5 = C=CCCC[C@](C)(N)C(=O)O; Nle = CCCC[C@H](N)C(=O)O

Key:
Plasma compatibility = assay type: physicochemical
Description: The plasma compatibility of exemplary peptidomimetic macrocycles was also determined. Peptidomimetic macrocycles with a plasma compatability value (PC) that is greater than 0.1 were determined as being plasma compatible.

[1] = Plasma PK/PD study in rats; assay type: in vivo, rat; conditions: male Sprague-Dawley rats; for MRT / clearance / Vd / half-life / AUC(0-inf): rat, 3 mg/kg; for clearance: read-out: Clp (converted); for Vd: read-out: Vdss; for half-life: read-out: t ½ (converted); for AUC(0-inf): route not given
Description: Five peptidomimetic macrocycles of the invention, as well as sermorelin, were studied to determine pharmacokinetic and pharmacodynamic parameters in rats. Male Sprague-Dawley rats (300 g, non-fasted, cannulated) were used. The study had three arms: IV administration, SC administration, and SC administration (vehicle control). For experiments using sermorelin, a dose level of 3 mg/kg IV/SC bolus was used (dose volume of […] dose and dose concentration of 1 mg/mL). The vehicle used was: 10 wt % N, N-Dimethylacetamide, 10 wt % DMSO, 2 wt % Solutol HS 15 in water for injection containing 45 mg/mL (4.5 wt %) Mannitol and 25 mM (0.38 wt %) Histidine (pH 7.5; 320 mOsm/kg). The peptide was first dissolved at high concentration in DMA and DMSO before a second dilution in Solutol vehicle.
For experiments using peptidomimetic macrocycles, 0.1 mL of DMA and 0.1 mL of DMSO were used to combine with each mg of macrocycle (˜4.3-4.5 mg of macrocycle used in each experiment). Sonication was used to ensure complete solubilization. 0.8 mL of Solutol vehicle was used for each mg of macrocycle in DMA/DMSO. The solutions were mixed gently with pipet or light vortexing. Fresh vials were used for each day of dosing, and macrocycles were stored solid at −20° C. prior to formulation.
For each study arm, 2 rats were bled (350 μL) at specific time points (5 min, 15 min, 30 min, 1 h, 2 h, 4 h, 8 h, 24 h, and 48 h) and a 150 μL bleed was performed just before dosing. Plasma was prepared into K2EDTA tubes by centrifuging for 20 minutes at 4° C. at 2000G maximum 30 minutes after collection. From each 350 μL bleed, 120 μL were transferred to one tube for PK studies and 50 μL to another tube for PD studies and frozen immediately. From the 150 μL bleed, 70 μL were transferred to one tube for PD studies and frozen immediately.

[2] = target: T1, human GHRH receptor (hGHRHR) (Homo sapiens, UniProt Q02643); assay: GHRHR agonism measured by cAMP (HTRF) in human 293 cells expressing hGHRHR; assay type: cell-based; conditions: 30 min at RT;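 also: receptor expressed transiently or stably, cells stimulated in serum-free medium, EC50 from a non-linear dose-response fit, maximal response defined by reference GHRH stimulation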
T1 construct: expressed in transfected cells; host or cells: Human 293 cells
T1 sequence (Q02643 23-423): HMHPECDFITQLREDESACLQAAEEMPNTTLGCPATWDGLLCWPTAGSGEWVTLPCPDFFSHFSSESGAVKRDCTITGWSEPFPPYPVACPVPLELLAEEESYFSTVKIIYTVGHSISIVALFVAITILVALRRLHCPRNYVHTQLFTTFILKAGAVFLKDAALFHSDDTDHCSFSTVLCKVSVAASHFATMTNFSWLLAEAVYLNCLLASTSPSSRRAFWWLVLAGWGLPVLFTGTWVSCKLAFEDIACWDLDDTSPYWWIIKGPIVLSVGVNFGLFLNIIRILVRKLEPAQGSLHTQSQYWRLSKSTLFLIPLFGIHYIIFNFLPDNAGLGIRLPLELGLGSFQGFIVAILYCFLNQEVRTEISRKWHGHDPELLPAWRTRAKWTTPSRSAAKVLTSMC
Description: GHRH (1-29) and cross-linked peptidomimetic macrocycles were tested for agonism at the human GHRH receptor (hGHRHR) at various concentrations. Human 293 cells transiently or stably expressing hGHRHR were detached from cell culture flasks with versene (Life Technologies™), suspended in serum-free medium (50 k cells/assay point), and stimulated for 30 min at RT with GHRH (1-29) (Bachem™) or cross-linked peptidomimetic macrocycles. cAMP was quantified using an HTRF®-based assay (CisBio) and used according to the manufacturer's instructions. An EC50 for each agonist was calculated from a non-linear fit of response vs dose (GraphPad™ Prism). The maximum response was determined by stimulating with 10 μM GHRH (1-29). (+=>50 nm; ++=>25-50 nm; +++=>10-25 nm; ++++=>1-10 nm; +++++=≤1 nm).

With `CCCC[C@H](NC(=O)[C@@H](NC(=O)[C@H](CC(=O)O)NC(=O)[C@H](CCC(N)=O)NC(=O)[C@H](CC(C)C)NC(=O)[C@H](C)NC(=O)[C@H](CCCCN)NC(=O)[C@H](CCCNC(=N)N)NC(=O)[C@H](C)NC(=O)[C@H](CO)NC(=O)[C@]1(C)CCCC=CCCC[C@](C)(NC(=O)[C@H](CCCCN)NC(=O)[C@H](CCCNC(=N)N)NC(=O)[C@H](Cc2ccc(O)cc2)NC(=O)[C@H](CO)NC(=O)[C@H](CCC(N)=O)NC(=O)[C@@H](NC(=O)[C@H](Cc2ccccc2)NC(=O)[C@@H](NC(=O)[C@H](C)NC(=O)[C@H](CC(=O)O)NC(=O)[C@@H](C)NC(=O)[C@@H](N)Cc2ccc(O)cc2)[C@@H](C)CC)[C@@H](C)O)C(=O)N[C@@H](CC(C)C)C(=O)N[C@@H](C)C(=O)N[C@@H](CCC(N)=O)C(=O)N1)[C@@H](C)CC)C(=O)N[C@@H](CO)C(=O)N[C@@H](CCCNC(=N)N)C(N)=O` (single isomer, unassigned) [SP-108] the “Plasma Compatability” value (Plasma compatibility) was 1.6 mg/mL.

In the case of `CCCC[C@@H]1NC(=O)[C@H](C)NC(=O)[C@H](CC(C)C)NC(=O)[C@@](C)(NC(=O)[C@H](CCCCN)NC(=O)[C@H](CCCNC(=N)N)NC(=O)[C@H](Cc2ccc(O)cc2)NC(=O)[C@H](CO)NC(=O)[C@H](CCC(N)=O)NC(=O)[C@@H](NC(=O)[C@H](Cc2ccccc2)NC(=O)[C@@H](NC(=O)[C@H](C)NC(=O)[C@H](CC(=O)O)NC(=O)[C@@H](C)NC(=O)[C@@H](N)Cc2ccc(O)cc2)[C@@H](C)CC)[C@@H](C)O)CCCC=CCCC[C@@](C)(C(=O)N[C@@H](CO)C(=O)N[C@@H](C)C(=O)N[C@@H](CCCNC(=N)N)C(=O)N[C@@H](CCCCN)C(=O)N[C@@H](C)C(=O)N[C@@H](CC(C)C)C(=O)N[C@@H](CCC(N)=O)C(=O)N[C@@H](CC(=O)O)C(=O)N[C@H](C(=O)N[C@@H](CCCC)C(=O)N[C@@H](CO)C(=O)N[C@@H](CCCNC(=N)N)C(N)=O)[C@@H](C)CC)NC1=O` [SP-106] (H-Y[dA]DAIFTQSYRK[S5]LA[Nle][S5]SARKALQDI[Nle]SR-NH2; staple 13-17), the “Plasma Compatability” value (Plasma compatibility) is reported as 0.9 mg/mL.

In the case of `CCCC[C@H](NC(=O)[C@@H](NC(=O)[C@H](CC(=O)O)NC(=O)[C@H](CCC(N)=O)NC(=O)[C@H](CC(C)C)NC(=O)[C@H](C)NC(=O)[C@H](CCCCN)NC(=O)[C@H](CCCNC(=N)N)NC(=O)[C@H](C)NC(=O)[C@H](CO)NC(=O)[C@H](CC(C)C)NC(=O)[C@H](CCC(N)=O)NC(=O)[C@H](C)NC(=O)[C@H](CC(C)C)NC(=O)[C@@H](NC(=O)[C@H](CCCCN)NC(=O)[C@H](CCCNC(=N)N)NC(=O)[C@H](Cc1ccc(O)cc1)NC(=O)[C@H](CO)NC(=O)[C@H](C)NC(=O)[C@@H](NC(=O)[C@H](Cc1ccccc1)NC(=O)[C@@H](NC(=O)[C@]1(C)CCCC=CCCC[C@](C)(N)C(=O)N[C@@H](Cc2ccc(O)cc2)C(=O)N[C@@H](C)C(=O)N[C@@H](CC(=O)O)C(=O)N1)[C@@H](C)CC)[C@@H](C)O)C(C)C)[C@@H](C)CC)C(=O)N[C@@H](CO)C(=O)N[C@@H](CCCNC(=N)N)C(N)=O` [SP-6] (H-[S5]YAD[S5]IFTASYRKVLAQLSARKALQDI[Nle]SR-NH2; staple 1-5), the “AUC Ext (%)” value [1] is reported as 16.3%, the MRT [1] is reported as 3.7 h and the clearance [1] is reported as 2.13 mL/min/kg. It also gave a Vd [1] of 0.474 L/kg, a half-life [1] of 20.6 h and an AUC(0-inf) [1] of 23500 ng·h/mL. The EC50 [2] was 25 to 50 nM.

For `CCCC[C@H](NC(=O)[C@@H](NC(=O)[C@H](CC(=O)O)NC(=O)[C@H](CCC(N)=O)NC(=O)[C@H](CC(C)C)NC(=O)[C@H](C)NC(=O)[C@H](CCCCN)NC(=O)[C@H](CCCNC(=N)N)NC(=O)[C@H](C)NC(=O)[C@H](CO)NC(=O)[C@]1(C)CCCC=CCCC[C@](C)(NC(=O)[C@H](CCCCN)NC(=O)[C@H](CCCNC(=N)N)NC(=O)[C@H](Cc2ccc(O)cc2)NC(=O)[C@H](CO)NC(=O)[C@H](CCC(N)=O)NC(=O)[C@@H](NC(=O)[C@H](Cc2ccccc2)NC(=O)[C@@H](NC(=O)[C@H](C)NC(=O)[C@H](CC(=O)O)NC(=O)[C@@H](C)NC(=O)[C@@H](N)Cc2ccc(O)cc2)[C@@H](C)CC)[C@@H](C)O)C(=O)N[C@@H](CC(C)C)C(=O)N[C@@H](C)C(=O)N[C@@H](CCC(=O)O)C(=O)N1)[C@@H](C)CC)C(=O)N[C@@H](CO)C(=O)N[C@@H](CCCNC(=N)N)C(N)=O` [SP-105] (H-Y[dA]DAIFTQSYRK[S5]LAE[S5]SARKALQDI[Nle]SR-NH2; staple 13-17), the “Plasma Compatability” value (Plasma compatibility) was 1.2 mg/mL.

In the case of `CCCC[C@H](NC(=O)[C@@H](NC(=O)[C@H](CC(=O)O)NC(=O)[C@H](CCC(N)=O)NC(=O)[C@H](CC(C)C)NC(=O)[C@H](C)NC(=O)[C@H](CCCCN)NC(=O)[C@H](CCCNC(=N)N)NC(=O)[C@H](C)NC(=O)[C@H](CO)NC(=O)[C@]1(C)CCCC=CCCC[C@](C)(NC(=O)[C@H](CCCCN)NC(=O)[C@H](CCCNC(=N)N)NC(=O)[C@H](Cc2ccc(O)cc2)NC(=O)[C@H](CO)NC(=O)[C@H](CCC(N)=O)NC(=O)[C@@H](NC(=O)[C@H](Cc2ccccc2)NC(=O)[C@@H](NC(=O)[C@H](C)NC(=O)[C@H](CC(=O)O)NC(=O)[C@@H](C)NC(=O)[C@@H](N)Cc2ccc(O)cc2)[C@@H](C)CC)[C@@H](C)O)C(=O)N[C@@H](CC(C)C)C(=O)N[C@@H](C)C(=O)N[C@@H](CCC(N)=O)C(=O)N1)[C@@H](C)CC)C(=O)N[C@@H](CO)C(=O)N[C@@H](CCCNC(=N)N)C(N)=O` (single isomer, unassigned) [SP-107], the “Plasma Compatability” value (Plasma compatibility) is reported as 1.6 mg/mL.

For `CCCC[C@H](NC(=O)[C@@H](NC(=O)[C@H](CC(=O)O)NC(=O)[C@H](CCC(N)=O)NC(=O)[C@H](CC(C)C)NC(=O)[C@H](C)NC(=O)[C@H](CCCCN)NC(=O)[C@H](CCCNC(=N)N)NC(=O)[C@H](C)NC(=O)[C@H](CO)NC(=O)[C@]1(C)CCCC=CCCC[C@](C)(NC(=O)[C@H](CCCCN)NC(=O)[C@H](CCCNC(=N)N)NC(=O)[C@H](Cc2ccc(O)cc2)NC(=O)[C@H](CO)NC(=O)[C@H](C)NC(=O)[C@@H](NC(=O)[C@H](Cc2ccccc2)NC(=O)[C@@H](NC(=O)[C@H](C)NC(=O)[C@H](CC(=O)O)NC(=O)[C@@H](C)NC(=O)[C@H](Cc2ccc(O)cc2)NC(=O)COCCOCCOC)[C@@H](C)CC)[C@@H](C)O)C(=O)N[C@@H](CC(C)C)C(=O)N[C@@H](C)C(=O)N[C@@H](CCC(N)=O)C(=O)N1)[C@@H](C)CC)C(=O)N[C@@H](CO)C(=O)N[C@@H](CCCNC(=N)N)C(N)=O` [SP-135] ({Decanoyl(3,6,9-trioxa)}-Y[dA]DAIFTASYRK[S5]LAQ[S5]SARKALQDI[Nle]SR-NH2; staple 13-17; N-terminus and C-terminus assumed), the “Plasma Compatability” value (Plasma compatibility) was 1.6 mg/mL.

For `CCCC[C@@H]1NC(=O)[C@H]([C@@H](C)CC)NC(=O)[C@H](CC(=O)O)NC(=O)[C@H](CCC(N)=O)NC(=O)[C@H](CC(C)C)NC(=O)[C@H](C)NC(=O)[C@](C)(NC(=O)[C@H](CCCNC(=N)N)NC(=O)[C@H](C)NC(=O)[C@H](CO)NC(=O)[C@H](CC(C)C)NC(=O)[C@H](CCC(N)=O)NC(=O)[C@H](C)NC(=O)[C@H](CC(C)C)NC(=O)[C@@H](NC(=O)[C@H](CCCCN)NC(=O)[C@H](CCCNC(=N)N)NC(=O)[C@H](Cc2ccc(O)cc2)NC(=O)[C@H](CO)NC(=O)[C@H](C)NC(=O)[C@@H](NC(=O)[C@H](Cc2ccccc2)NC(=O)[C@@H](NC(=O)[C@H](C)NC(=O)[C@H](CC(=O)O)NC(=O)[C@H](C)NC(=O)[C@H](Cc2ccc(O)cc2)NC)[C@@H](C)CC)[C@@H](C)O)C(C)C)CCCCCCC=CCCC[C@@](C)(C(=O)N[C@@H](CCCNC(=N)N)C(N)=O)NC1=O` [SP-32] (H-[NMeY]ADAIFTASYRKVLAQLSAR[R8]ALQDI[Nle][S5]R-NH2; staple 21-28; N-terminus and C-terminus assumed), the “AUC Ext (%)” value [1] was 3.0%, the MRT [1] was 2.3 h and the clearance [1] was 1.35 mL/min/kg. It also gave a Vd [1] of 0.19 L/kg, a half-life [1] of 9.7 h and an AUC(0-inf) [1] of 37000 ng·h/mL.
